{"source": "patent US20260365698A1", "about": "“STAPLED PEPTIDES FOR SENSITIZATION OF CANCER TO TREATMENT” (Purdue Research Foundation, priority 2022, published 2026)", "key": {"Nrf2": {"system": "Nrf2", "test": "Dual luciferase assay, NQO1-ARE firefly / TK-Renilla reporter", "format": "cell-based", "conditions": "HEK-293T cells; for inhibition of Nrf2 activity: 16 hours, 50 μM in FIG. 4A", "method": "The results are averages from three replicates.\nThe peptides from Example 1 were screened for Nrf2 inhibition using a previously developed dual luciferase assay. Ren et al., Brusatol enhances the efficacy of chemotherapy by inhibiting the Nrf2-mediated defense mechanism, Biological Sciences 108(4): 1433-1438 (2011). Briefly, HEK-293T cells stably expressing ARE-firefly luciferase and TK-Renilla luciferase were used. The cells were treated with different concentrations of compounds N1 (SEQ ID NO: 3), N1 S (SEQ ID NO: 6), N2 (SEQ ID NO: 4), N2S (SEQ ID NO: 7), N3 (SEQ ID NO: 5), and N3S (SEQ ID NO: 8) for 16 hours. The cells were lysed in 1× passive lysis buffer, and both firefly luciferase and Renilla luciferase activities were measured using the Promega Dual-Luciferase™ Reporter (DLR™) Assay System and a luminometer (Turner Biosystems 20/20^n Luminometer). The samples were in triplicate for all concentrations of compounds (n=3)."}, "[1]": {"target": "T1, Nrf2-MafG-DNA ARE complex (Homo sapiens, UniProt O15525)", "T1 construct": "listing gives 93-aa segments", "T1 sequence (O15525 whole entry, one chain of several)": "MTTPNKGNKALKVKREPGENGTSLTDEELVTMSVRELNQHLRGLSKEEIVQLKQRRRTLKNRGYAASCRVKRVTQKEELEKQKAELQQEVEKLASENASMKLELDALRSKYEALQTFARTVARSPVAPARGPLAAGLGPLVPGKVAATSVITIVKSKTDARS", "test": "Fluorescence polarization assay with Nrf2, MafG and FAM-labeled ARE", "format": "biochemical", "conditions": "200 nM His-MBP-NRF2, 200 nM His-MafG, 20 nM FAM-labeled ARE; 'as low as'", "method": "Briefly, a 96-well plate (VWR® Solid Bottom Assay Plates, 96-well, black) was used to encapsulate each fluorescence polarization reaction. Unless otherwise stated (i.e., ARE only, ARE+MafG), each 100-μL reaction contained 200 nM purified recombinant His-MBP-NRF2, 200 nM purified recombinant His-MafG, various concentrations of molecule, and 20 nM 5′ FAM-labeled ARE all together in 1× PBS solution.\nFirst, NRF2 was incubated with molecule for 5 minutes with shaking, followed by the addition of MafG for another 5-minute incubation. Finally, ARE was added, and the MafG-NRF2-ARE system was incubated for 10 minutes with shaking. After incubation, the plate was placed into a plate reader (Molecular Devices SpectraMax® iD5 Multi-Mode Microplate Reader). The fluorescence polarization measurement was performed at excitation/emission values of 470:525 nm, respectively. The samples were in triplicate (n=3)."}, "Nrf2/MafG heterodimer": {"target": "Nrf2/MafG heterodimer (Homo sapiens, UniProt O15525)", "sequence (O15525 whole entry, one chain of several)": "as above", "test": "Split luciferase assay with purified MafG and Nrf2", "format": "biochemical", "conditions": "in vitro, FIG. 6A; listed as NIS", "description": "Data shown are from three technical replicates with standard error. The data are representative of three independent experiments. *p<0.05, **p<0.01, ***p<0.001, student's T-test compared to dimethyl sulfoxide (DMSO)."}, "MafG": {"target": "T2, MafG (Homo sapiens, UniProt O15525)", "T2 construct": "made in house; host or cells: E. coli Rosetta (DE3), vector pET15B, Ni-NTA purified", "T2 sequence (O15525 whole entry)": "as the sequence (O15525 whole entry, one chain of several) above", "test": "Surface plasmon resonance (SPR)", "format": "binding", "method": "To determine the affinity of binding between MafG and compound NIS, surface plasmon resonance (SPR) was performed with biotin-labeled compound NIS and His-MafG. For all SPR-binding measurements, a Biacore 100-Instrument (Biacore-GE) was used. Binding between MafG and biotin-labeled compound NIS peptide was performed by first immobilizing the biotin N1S peptide on a SA chip (Cytiva, Marlborough, MA). The binding buffer (150 mM NaCl, 10 mM HEPES, pH 7.5, 1 mM MgCl2, 1 mM […] (TCEP) and 0.05% P-20) was used. Biotin-compound NIS (1 μM) was injected at a rate of 10 μl min^−1 for 10 minutes, immobilizing approximately 528 response units. Increasing concentrations of MafG (two-fold dilutions between 2.5 μM and 0.100 μM, including two blanks) were subsequently passed over the Biotin-compound N1S functionalized chip as well as a streptavidin reference surface. Multiple cycle analysis was carried out, without regenerating the chip between different MafG concentrations. Binding data was reference normalized and processed using Prism software, A one-site binding model was applied to the processed data set to determine binding parameters of MafG binding to N1S."}, "[2]": {"system": "glutathione (GSH) in A549 cells", "test": "GSH-Glo glutathione quantification", "format": "cell-based", "conditions": "24 hours", "method": "Data are from three independent experiments with standard deviation. ****p<0.0001, one-way ANOVA.\nThe manufacturer's instructions were followed. Cells were plated at a density of 20,000 cells/ml and treated with various concentrations of NIS for 24 hours."}, "[3]": {"system": "A549 non-small cell lung cancer cells", "test": "Incucyte live-cell analysis of combination with cisplatin; synergy by Chou-Talalay method", "format": "cell-based", "conditions": "relatively low concentrations of cisplatin, varying concentrations of N1S", "method": "Cl values<1 were synergistic (red), CI values=1 were additive (green), and CI values>1 were antagonistic (not observed).\nNTS, cisplatin, or a combination thereof. Error bars represent the standard deviation between three technical replicates. The data are representative of three independent experiments.\nThe ability of compound N1S to increase sensitivity to chemotherapeutics was examined. A549 non-small cell lung cancer cells were seeded into a Corning® 96-Well Cell Culture Plate (clear, sterile, non-treated) and incubated for 24 hours. The cells were treated with cisplatin alone, compound NIS alone, or in combination. Immediately following treatment, the cells were placed into an Incucyte® S3 Live-Cell Analysis Instrument (Sartorius AG, Gottingen, Germany) and imaged every two hours for three days. The Incucyte® S3's analytical software was used to calculate cell confluency at each time point. Synergy was determined using the Chou-Talalay method."}}, "note": "pKd: −log10 of the molar value. Entries after “also recorded” stand apart in the source; their conditions may differ. Bridge positions count the residues as written; N and C are the ends. Square brackets hold non-standard residues; d marks the D form. Peptide text beside a SMILES is read from it. S5 = C=CCCC[C@](C)(N)C(=O)O", "data": [{"smiles": "CC[C@H](C)[C@H](NC(C)=O)C(=O)N[C@H](C(=O)N[C@@H](CCC(=O)O)C(=O)N[C@@H](CC(C)C)C(=O)N[C@@H](CCC(=O)O)C(=O)N[C@@]1(C)CCCC=CCCC[C@@](C)(C(=O)N[C@@H](CC(C)C)C(=O)N[C@@H](CCCCN)C(=O)N[C@@H](CC(=O)O)C(=O)N[C@@H](CCC(=O)O)C(=O)N[C@@H](CCCCN)C(=O)N[C@@H](CCC(=O)O)C(N)=O)NC(=O)[C@H](CC(=O)O)NC(=O)[C@H](CC(C)C)NC(=O)[C@H](CC(=O)O)NC1=O)C(C)C", "note": "[N1S] (Ac-IVELE[S5]DLD[S5]LKDEKE-NH2; staple 6-10)", "values": [{"measurement": "inhibition of Nrf2 activity", "setting": "Nrf2", "result": "inhibit Nrf2"}, {"measurement": "inhibition of Nrf2 activity", "setting": "Nrf2; listed as NIS", "result": "most potent inhibition of Nrf2 activity"}, {"measurement": "dose response for Nrf2 inhibition", "setting": "Nrf2; FIG. 4B", "result": "showed a dose-response curve for Nrf2 inhibition"}, {"measurement": "lowest concentration decreasing binding of the heterodimer to the DNA", "setting": "[1]", "result": 0.2, "unit": "µM"}, {"measurement": "inhibition of dimerization of Nrf2 with MafG", "setting": "Nrf2/MafG heterodimer", "result": "inhibiting dimerization of Nrf2 with MagF in vitro in a dose-dependent manner; also recorded: inhibits its dimerization with Nrf2"}, {"measurement": "pKd", "setting": "MafG; biotin-labeled N1S on SA chip, His-MafG passed over, one-site binding model, read-out: dissociation constant", "result": 6.47}, {"measurement": "direct binding to MafG", "setting": "MafG; summary of in vitro analysis", "result": "directly binds MafG"}, {"measurement": "glutathione (GSH) levels", "setting": "[2]", "result": "Significant reductions"}, {"measurement": "synergy with cisplatin", "setting": "[3]", "result": "synergy was observed; also recorded: strong synergy"}]}]}
